Source: publication PMC7717691, “Design, synthesis, and anticonvulsant effects evaluation of nonimidazole histamine H3 receptor antagonists/inverse agonists containing triazole moiety” (Journal of Enzyme Inhibition and Medicinal Chemistry, 2020)
“Also recorded” adds a separate entry of the source. Where two headings read alike, the source gives them in different places.

Assays:
H3R [1] = molecular target: T1, H3R (Homo sapiens, UniProt Q9Y5N1); assay: CRE-luciferase assay, H3R inverse agonist activity (forskolin-stimulated transfected HEK-293 cells); format: cell-based; conditions: 10 µM forskolin plus compound; seven concentrations; read-out: H3R inverse agonistic activity EC50
T1 construct: expressed in transfected cells
T1 sequence (Q9Y5N1 whole entry): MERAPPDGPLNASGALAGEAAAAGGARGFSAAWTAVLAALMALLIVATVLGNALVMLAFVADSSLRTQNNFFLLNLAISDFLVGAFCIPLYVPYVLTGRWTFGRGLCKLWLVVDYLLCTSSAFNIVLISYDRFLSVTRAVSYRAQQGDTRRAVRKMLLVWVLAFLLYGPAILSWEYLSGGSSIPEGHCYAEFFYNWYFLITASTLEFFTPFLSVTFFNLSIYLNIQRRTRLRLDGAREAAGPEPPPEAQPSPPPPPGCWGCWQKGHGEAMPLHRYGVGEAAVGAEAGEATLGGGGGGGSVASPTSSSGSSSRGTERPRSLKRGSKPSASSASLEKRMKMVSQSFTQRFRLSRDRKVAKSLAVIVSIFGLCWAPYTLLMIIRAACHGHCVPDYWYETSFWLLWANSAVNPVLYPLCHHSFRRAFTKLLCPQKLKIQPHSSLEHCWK
Description: The raise of luciferase activity after adding compound represented the inverse agonistic activity. The EC50 was calculated by seven concentrations.

MES-induced convulsions = MES-induced convulsions model; format: in vivo; conditions: mice; for protection against MES-induced convulsions (reduction or abolition of THLE): i.p.; for protection against MES-induced convulsions in different doses: Figure 7
Excerpt: Protection for the mice was defined as the reduction or abolition of the tonic hind limb extension (THLE) in the MES model in mice.
Ear stimulation with alternating current (0.2 s, 60 Hz, 50 mA) was used to induce the seizures in mice. The reduction or abolition of the hind limb tonic extension (THLE) of mice was considered protective against the MES-induced seizures[29]^,[48]. […]

H3R [2] = molecular target: T1, H3R; assay: CRE-driven luciferase reporter gene assay, H3R antagonistic activity; format: cell-based; conditions: for % Antagonism 100 nM: 100 nM compound; for % Antagonism 100 nM / % Antagonism 1 μM: HEK-293 cells expressing human H3R, mean ± SD of three experiments; for % Antagonism 1 μM: 1 μM compound
Description: cAMP-response element (CRE) reporter gene assay has been extensively used to evaluate the efficacy of GPCR antagonists or agonists. […] Initially, compounds and positive controls were tested at two concentrations (100 nM and 1 µM) to obtain the preliminary investigation of their H3R antagonistic activities. In the assays, the antagonistic activities was positively correlated with the rise of the fluorescence value and indicated by the % antagonism. For the prominent compounds IC50 values were determined at additional assays.
Human thalamus poly-A RNA (Clontech, Palo Alto, CA, USA) was used to clone the hH3R gene by RT-PCR. DNA PCR primers were designed in the light of the reported human histamine receptor gene sequences (GenBank accession no.AF140538). HEK-293 cells were cultured and transfected for the luciferase assay. The detailed procedures were described in the previous publication.
Stable HEK-293 cells, which had been co-transfected with H3R and pCRE-Luc, were seeded in a 96-well plate overnight, and were grown to 90–95% confluence[43]^,[44]. Then the cells were treated with various concentrations of tested compounds in serum-free DMEM and incubated for 20 min. Cells were then stimulated with 100 nM Histamine in serum-free DMEM containing 2 µM Forskolin and incubated for 4 h at 37 °C. Firefly luciferase assay kits (Ken-real, Shanghai, China) were used to determine the luciferase activity.

[3] = Rotarod test (neurotoxicity); format: in vivo; conditions: 10 and 20 mg/kg
Excerpt: To exclude the possibility that the anticonvulsant activity of 3m was connected with sedative effect, we carried out a rotarod test for 3m.

intracellular cAMP = assay: Effect of compounds administrated alone on the level of intracellular cAMP; format: cell-based; conditions: compound alone; ANOVA followed by Dunnett's test; Figure 2
Excerpt: It is well known that H3R is a GPCR coupled with Gαi. When the ligand (histamine) binds to H3R, the dissociated Gαi inhibits the activity of adenylate cyclase (AC) and down-regulates the level of intracellular cAMP. In this CREs driven luciferase assay, when cells were pre-treated by H3R antagonists, the downregulation of cAMP would be inhibited, and the level of intracellular cAMP would regain to the initial level.

PTZ [4] = conditions: cited from earlier work
MES [5] = conditions: cited from earlier work
PTZ [6] = conditions: 10 mg/kg i.p.; ref not printed (Figure 1); cited from earlier work
[7] = tested on: human photosensitivity model; conditions: dose ranges of 30–60 mg, alone or in combination with other AEDs; cited from earlier work
MES [8] = conditions: 10 mg/kg i.p.; ref not printed (Figure 1); cited from earlier work
PTZ-induced convulsions = PTZ-induced convulsions model; format: in vivo; conditions: mice, PTZ 85 mg/kg s.c.
Description: To investigate the anticonvulsive effects, all the target compounds (3a-3q) were screened in the MES-induced and PTZ-induced convulsion models in mice. Compounds were administered intraperitoneally (i.p.) to mice at dosage of 10 mg/kg in the both models. PIT and valproic sodium (VPA) were used as positive controls in the tests.
PTZ (85 mg/kg) was injected subcutaneously to induce seizures. […] The following are the specific meaning of graded scores: score 0 = normal, score 1 = eyelids or facial twitches, score 2 = agitation with body twisting, score 3 = myo-clonic jerks or rearing, score 4 = turn over into one side position or running violently, and score 5 = turn over into back position, limbs tonic extension, or die during the experiment period.

[9] = 10 mg/kg, 30 min before stimulation, vs saline group

SMILES: Clc1ccc(-c2nncn2-c2ccc(OCCCN3CCCCC3)cc2)cc1 [Compound 3m, 1-(3-(4-(3-(4-chlorophenyl)-4H-1,2,4-triazol-4-yl)phenoxy)propyl)piperidine]
- melting point: 165 to 167 °C
- EC50 (H3R [1]): 129 nM
- protection against MES-induced seizures when co-treated with RAMH (MES-induced convulsions; 10 mg/kg i.p. plus RAMH 10 mg/kg i.p.): fully abrogated; also recorded: lost its original protective effect
- protection against MES-induced convulsions (reduction or abolition of THLE) (MES-induced convulsions; [9]): moderate protection
- protection against MES-induced convulsions in different doses (MES-induced convulsions): dose dependent
- % Antagonism 100 nM (H3R [2]): 201.12 ± 12.63%
- % Antagonism 1 μM (H3R [2]): 203.92 ± 8.44%
- IC50 (H3R [2]; CRE luciferase assay, HEK-293 cells, Table 1): 5.92 nM
- neurotoxicity in rotarod test [3]: no neurotoxicity
- effect on the level of cAMP when treated alone (intracellular cAMP): no significant effects

SMILES: CCCCCCCOc1ccc2c(c1)-c1nncn1CCO2 [II]
- PTZ (mice) (PTZ [4]; 30 mg/kg i.p.): protection
- MES (mice) (MES [5]; 10 mg/kg i.p.): protection

SMILES: Clc1ccc(CCCOCCCN2CCCCC2)cc1 [PIT, Pitolisant, reference compound]
- PTZ (rats) (PTZ [6]): no protection
- protection against MES-induced convulsions (reduction or abolition of THLE) (MES-induced convulsions; [9]): moderately
- protection against MES-induced convulsions (THLE) (MES-induced convulsions; 20 mg/kg): fully abrogate the tonic hind limb extension; also recorded: fully abrogate the THLE
- protection against MES-induced convulsions in different doses (MES-induced convulsions): dose-dependently
- % Antagonism 100 nM (H3R [2]): 54.16 ± 7.33%
- % Antagonism 1 μM (H3R [2]): 246.29 ± 21.48%
- EEG profile in the human photosensitivity model [7]: favourable EEG profile in a dose-dependent manner
- MES (rats) (MES [8]): protection
- protection against PTZ-induced convulsions (PTZ-induced convulsions; 10 mg/kg i.p.): failed to protect

SMILES: S=C(NC1CCCCC1)N1CCC(c2cnc[nH]2)CC1 [Thioperamide]
- PTZ (mice) (PTZ [4]; 7.5 & 15 mg/kg i.p.): protection
- MES (mice) (MES [5]; 10 & 15 mg/kg i.p.): protection

SMILES: CCCC(CCC)C(=O)O [VPA, Valproic acid, reference compound]
- protection against MES-induced convulsions (reduction or abolition of THLE) (MES-induced convulsions; 300 mg/kg): potently
- protection against PTZ-induced convulsions (PTZ-induced convulsions; 300 mg/kg i.p.): full protection
